The values below are quoted from earlier work in PMC12308805, “Ultrahigh-Throughput Virtual Screening Strategies against PPI Targets: A Case Study of STAT Inhibitors” (Journal of Chemical Information and Modeling, 2025).

Structures are written as SMILES. Square brackets hold non-standard residues; d marks the D form. Peptide text beside a SMILES is read from it. * marks the point of attachment. Isobutyryl = CC(C)C(=O)*

The first data set has as its system STAT3. The note with it: sheet 6QHD_actives_decoys; retrospective screening set for STAT3 SH2 domain (PDB 6QHD); […]; ref DUD-E; cited from earlier work.
As to `COc1ccccc1NS(=O)(=O)c1ccc(OC)c(NS(=O)(=O)c2ccc(C(=O)O)cc2)c1` [Decoy605], the Type entry is recorded as “Inactive (Decoy)”. In the case of `CCN1C(=O)[C@@](C)(C(=O)Nc2ccc(S(=O)(=O)Nc3nccs3)cc2)Oc2ccccc21` [Decoy608], the Type entry is “Inactive (Decoy)”. For `COc1ccc(NC(=O)c2cc(C)nc3c2c(C)nn3C)cc1NS(=O)(=O)c1ccc(F)cc1` [Decoy619], the Type entry was “Inactive (Decoy)”.

Regarding `Cc1ccc(S(=O)(=O)N[C@]2(C(F)(F)F)C(=O)Nc3c2c(=O)nc(O)n3-c2ccccc2)cc1` [Decoy629], the Type result is on record as “Inactive (Decoy)”. As to `CCOC(=O)C1=C(SC)S[C@@H](/C(C(=O)OCC)=C2/NN=C(c3ccccc3)O2)N=C1N` [Decoy644], the Type entry is given as “Inactive (Decoy)”.

Consider `CCCNC(=O)CN1CCN(c2cc(C(=O)O)c3cc(NS(=O)(=O)c4cccc(C)c4)ccc3n2)CC1` [Decoy646], for which the Type entry was “Inactive (Decoy)”.

The same data set, now with this note: sheet 6QHD_actives_decoys; retrospective screening set for STAT3 SH2 domain (PDB 6QHD); decoys generated with DUD-E and presumed inactive, not tested; ref DUD-E; cited from earlier work.
For the compound `CCOc1cc(N2CCOCC2)c(OCC)cc1NC(=O)c1oc2ccccc2c1CSc1ncn[nH]1` [Decoy600], the Type result is “Inactive (Decoy)”.

Regarding `C=CCn1c(CCCN2C(=O)c3cccc4cccc(c34)C2=O)nnc1SCC(=O)Nc1ccc(S(N)(=O)=O)cc1` [Decoy601], the Type entry is listed as “Inactive (Decoy)”. In the case of `Cc1ccc(S(=O)(=O)NCC(=O)N/N=C/c2ccc(OC(=O)c3ccccc3)cc2OC(=O)c2ccccc2)cc1` [Decoy602], the Type entry is on record as “Inactive (Decoy)”. Consider `CCCCCN(C(=O)Cn1c(=O)n(CC)c(=O)c2ccccc21)c1c(N)n(CCCC)c(=O)[nH]c1=O` [Decoy603], for which the Type entry was “Inactive (Decoy)”. Consider `CC[C@@H]1Oc2ccc(S(=O)(=O)N3CCN(C(=O)CNC(=O)c4cccs4)CC3)cc2NC1=O` [Decoy604], for which the Type entry is on record as “Inactive (Decoy)”.

Take `COc1ccc(C[C@@H]2COC(=O)[C@@H]2Cc2ccc(O[C@@H]3O[C@H](CO)[C@@H](O)[C@H](O)[C@H]3O)c(OC)c2)cc1OC` [Decoy606]: the Type entry is on record as “Inactive (Decoy)”. With `CC(=O)N[C@H]1[C@H]([C@H](O)[C@H](O)CO)O[C@](O[C@H]2[C@@H](O)[C@@H](CO)O[C@@H](O[C@H]3[C@H](O)[C@@H](O)[C@H](NC(C)=O)O[C@@H]3CO)[C@@H]2O)(C(=O)O)C[C@@H]1O` [Decoy607], the Type entry is “Inactive (Decoy)”. As for `CCOC(=O)Cn1nnnc1[C@@H](CC)N(CCc1cccc(C)c1)Cc1cc2cc(OCC)ccc2[nH]c1=O` [Decoy609], the Type entry was “Inactive (Decoy)”. `Cc1ccc(S(=O)(=O)NCc2ccco2)cc1C(=O)NNC(=O)c1nn(-c2ccccc2)cc1O` [Decoy610]: the Type result was “Inactive (Decoy)”. In the case of `C=C1CC[C@@H]2[C@](C)(CC[C@H](O)[C@@]2(C)CO[C@H]2O[C@@H](CO[C@H]3O[C@@H](CO)[C@@H](O)[C@H]3O)[C@@H](O)[C@@H](O)[C@H]2O)[C@@H]1CC/C(C)=C\CO` [Decoy611], the Type entry was “Inactive (Decoy)”. Take `C=C1CC[C@H]2[C@](C)(CO[C@H]3O[C@@H](CO[C@H]4O[C@@H](CO)[C@@H](O)[C@H]4O)[C@@H](O)[C@@H](O)[C@H]3O)[C@@H](O)CC[C@]2(C)[C@H]1CC/C(C)=C\CO` [Decoy612]: the Type entry is “Inactive (Decoy)”. Take `O=C(O)c1cccc(NC(=O)[C@@H]2C[C@H](SS[C@@H]3CN[C@H](C(=O)Nc4cccc(C(=O)O)c4)C3)CN2)c1` [Decoy613]: the Type entry was “Inactive (Decoy)”. As for `Cc1ccc(S(=O)(=O)CNC(=O)[C@@H](c2ccc3c(c2)OCO3)N(C)C(=O)c2cccc(O)c2O)cc1` [Decoy614], the Type result is “Inactive (Decoy)”. Turning to `COc1cc([N+](=O)[O-])ccc1NC(=O)C[C@H]1N=C(N/C(N)=N/c2ccccc2C)N=C1O` [Decoy615], the Type entry is reported as “Inactive (Decoy)”. Regarding `CC[C@@H](c1nnnn1CCOC)N(CCc1ccc(OC)c(OC)c1)Cc1cc2c(C)cc(C)cc2[nH]c1=O` [Decoy616], the Type result is “Inactive (Decoy)”. `CCOC(=O)c1c(C)oc(NC(=O)[C@@H](CC)n2c(N)nnc2SCC(=O)OC)c1C(=O)OCC` [Decoy617]: the Type entry is “Inactive (Decoy)”. For the compound `Cc1ccc(NC(=O)NC[C@@H](C)Cn2cccn2)cc1NC(=O)NC[C@H](C)Cn1cccn1` [Decoy618], the Type result is given as “Inactive (Decoy)”. On to `OC[C@@H](O)CN(C[C@H](O)CO)c1ccc(Cc2ccc(N(C[C@H](O)CO)C[C@@H](O)CO)cc2)cc1` [Decoy620], for which the Type result is given as “Inactive (Decoy)”. Regarding `C[C@H](OC(=O)[C@@](O)(Cc1ccc(O)cc1)[C@H](C)O)[C@@](O)(Cc1ccc(O)cc1)C(=O)OCc1ccc(O[C@H]2O[C@@H](CO)[C@@H](O)[C@@H](O)[C@H]2O)cc1` [Decoy621], the Type result is on record as “Inactive (Decoy)”. For `COC(=O)[C@@H]1O[C@@H](O[C@@H]2CC[C@@]3(C)[C@@H](CC[C@@H]4[C@H]5CC[C@@H](/C(COC(C)=O)=N/NC(N)=O)[C@@]5(C)CC(=O)[C@H]43)C2)[C@H](OC(C)=O)[C@@H](OC(C)=O)[C@@H]1OC(C)=O` [Decoy622], the Type entry is recorded as “Inactive (Decoy)”.

Take `COCCN(CCOC)S(=O)(=O)c1ccc(C(=O)Nc2sccc2C(=O)NN(C)C)cc1` [Decoy623]: the Type entry is given as “Inactive (Decoy)”. As to `O=C(CSc1cn[nH]n1)Nc1ccc(-c2nc3ccc(NC(=O)CSc4cn[nH]n4)cc3s2)c(O)c1` [Decoy624], the Type entry is recorded as “Inactive (Decoy)”. Take `COC(=O)c1ccc(NC(=O)CSc2nn3c(SCC(=O)Nc4ccc(C(=O)OC)cc4)nnc3s2)cc1` [Decoy625]: the Type entry was “Inactive (Decoy)”. Regarding `CNC(=O)[C@H](CC(C)C)NC(=O)[C@H](Cc1c[nH]cn1)NC(=O)[C@@H](C)NC(=O)[C@@H](NC(=O)[C@H](C)NC(=O)[C@H](Cc1c[nH]c2ccccc12)NC(=O)[C@H](Cc1cnc[nH]1)NC(=O)C(C)C)C(C)C` [Decoy626] (Isobutyryl-HWAV[dA]HL-NHMe), the Type entry is “Inactive (Decoy)”. For the compound `CCCCCCCCCC(=O)O[C@@H]1[C@@H](O[C@@]2(CO)O[C@@H](CO)[C@@H](O)[C@H]2OC(=O)C(C)C)O[C@@H](CO)[C@@H](OC(=O)C(C)C)[C@H]1OC(=O)C(C)C` [Decoy627], the Type result was “Inactive (Decoy)”. Take `COc1cc(C(=O)NCc2nnc(SCC(=O)Nc3ccc(F)cc3)n2-c2cccc(C)c2)cc(OC)c1OC` [Decoy628]: the Type result was “Inactive (Decoy)”. For `COC(=O)c1cc2c(cc1C(=O)OC)OCCOCCOCCN(Cc1cn(CCOCCOCCO)nn1)CCOCCOCCO2` [Decoy630], the Type entry is on record as “Inactive (Decoy)”. On to `CCOCCOc1ccccc1C(=O)N/C(S)=N\NC(=O)COc1ccc([N+](=O)[O-])cc1` [Decoy631], for which the Type entry is reported as “Inactive (Decoy)”. Take `CCN(CC)C(=O)c1sc(NC(=O)CCSCCC(=O)Nc2sc(C(=O)N(CC)CC)c(C)c2C(=O)OC)c(C(=O)OC)c1C` [Decoy632]: the Type result is on record as “Inactive (Decoy)”. Turning to `COC(=O)[C@@H]1O[C@H](OCC(=O)[C@@]2(O)CC[C@@H]3[C@H]4CCC5=CC(=O)CC[C@@]5(C)[C@@H]4[C@@H](O)C[C@@]32C)[C@@H](OC(C)=O)[C@H](OC(C)=O)[C@H]1OC(C)=O` [Decoy633], the Type result is recorded as “Inactive (Decoy)”. Turning to `COC(=O)[C@H]1O[C@H](OCC(=O)[C@@]2(O)CC[C@H]3[C@H]4CCC5=CC(=O)C=C[C@@]5(C)[C@@H]4[C@@H](O)C[C@@]32C)[C@@H](OC(C)=O)[C@H](OC(C)=O)[C@H]1OC(C)=O` [Decoy634], the Type result is “Inactive (Decoy)”. `COc1cc(/N=N/c2ccc(N)cc2)c(C)cc1/N=N/c1c(S(=O)(=O)O)cc2ccc(N)cc2c1O` [Decoy635]: the Type result is “Inactive (Decoy)”. `CC(=O)N[C@@H]1[C@@H](O)[C@H](O[C@@H]2O[C@H](CO)[C@H](O)[C@H](O[C@@]3(C(=O)O)C[C@H](O)[C@@H](NC(C)=O)[C@H]([C@H](O)[C@H](O)CO)O3)[C@H]2O)[C@@H](CO)O[C@H]1O` [Decoy636]: the Type result is reported as “Inactive (Decoy)”. With `CC(=O)N[C@@H]1[C@@H](O)[C@H](O[C@@H]2O[C@H](CO)[C@H](O)[C@H](O[C@@]3(C(=O)O)C[C@H](O)[C@H](NC(C)=O)[C@H]([C@H](O)[C@H](O)CO)O3)[C@H]2O)[C@@H](CO)O[C@H]1O` [Decoy637], the Type entry is listed as “Inactive (Decoy)”. With `CC(=O)N[C@@H]1[C@@H](O)[C@H](O[C@@H]2O[C@H](CO)[C@H](O)[C@H](O[C@]3(C(=O)O)C[C@H](O)[C@@H](NC(C)=O)[C@H]([C@H](O)[C@H](O)CO)O3)[C@H]2O)[C@@H](CO)O[C@@H]1O` [Decoy638], the Type entry is reported as “Inactive (Decoy)”.

For the compound `COc1cc([N+](=O)[O-])cc(/C=N/NC(=O)CSc2nnc(-c3cccc(Br)c3)n2C)c1O` [Decoy639], the Type entry is recorded as “Inactive (Decoy)”. As to `CC(C)(CO[P@](=O)(O)O[P@](=O)(O)OC[C@H]1O[C@@H](n2cnc3c(N)ncnc32)[C@@H](O)[C@H]1O)[C@H](O)C(=O)NCCC(=O)NCCS` [Decoy640], the Type result is “Inactive (Decoy)”. On to `COc1cc(O)cc(C)c1C(=O)O[C@H]1[C@H](O)[C@@H](O)[C@@H](OC2[C@@H](O)[C@H](O)C(O)[C@H](O)[C@@H]2O)O[C@@H]1CO` (some centres unmarked) [Decoy641], for which the Type result was “Inactive (Decoy)”.

On to `Cc1nn(C)c(C)c1CCCN(C)c1ccc(NS(=O)(=O)c2ccc(C(C)C)cc2)cc1C(=O)O` [Decoy642], for which the Type entry is recorded as “Inactive (Decoy)”. Regarding `CC(=O)OC[C@H]1O[C@@H](O[C@@]2(CO)O[C@@H](CO)[C@@H](OC(C)=O)[C@H]2OC(C)=O)[C@@H](OC(C)=O)[C@@H](OC(C)=O)[C@@H]1O` [Decoy643], the Type result is “Inactive (Decoy)”.

As for `CCOc1ccc([C@@H]2C(C(=O)c3ccc(Cl)cc3)=C(O)C(=O)N2CCCn2ccnc2)cc1OCC` [Decoy645], the Type result is recorded as “Inactive (Decoy)”.

With `COc1cc([C@@H]2C(C(=O)c3ccc4c(c3)OCCO4)=C(O)C(=O)N2CCCn2ccnc2)cc(Br)c1O` [Decoy647], the Type entry is listed as “Inactive (Decoy)”.

Regarding `OCCN(CCO)C1=N[C@@H]2C(N3CCCCC3)=NC(N(CCO)CCO)=N[C@@H]2C(N2CCCCC2)=N1` [Decoy648], the Type result is listed as “Inactive (Decoy)”. For `CC[C@@H](C)[C@@H](NC(=O)CNC(=O)CCc1c(C)c2cc3c(C)coc3c(C)c2oc1=O)C(=O)O` [Decoy649], the Type entry is listed as “Inactive (Decoy)”.
